Legend:
[1] = test system: male C57BL6 DIO mice; assay: Oral glucose tolerance test, blood glucose levels (Example 2); format: in vivo
Protocol: In this experiment, male C57BL6 DIO mice (10-11 weeks old, n=52) were used and maintained on a high fat diet. A total of 49 animals were used in this study. […] The mice were randomized to achieve similar body weight and glucose for each group before dosing. All animals were subjected to fasting at the start of the dark period (Groups 1-7). Food was removed, and bedding materials were replaced with fresh bedding to eliminate any residual food. Animals remained under fast until the 120 minute time point was taken. Water was made available ad libitum throughout the study. A 30 mg/mL stock solution of melatonin (30 mg melatonin in 1 ml of pure sesame oil) was made. From this stock solution, 10 μL of stock was taken and diluted with 990 μL of sesame oil, resulting in a solution concentration of 300 μg/ml. This was then diluted 1:18, resulting in a final concentration of 16.6-16.7 μg/mL. The doses of melatonin were adjusted based on the weight of the mouse. […] Blood glucose levels were measured by standard methods. […] Blood glucose level of all animals in Groups 1-7 were measured at time 0 (right before the glucose dosing), 15, 30, 60 and 120 minutes post glucose dosing (5 time points). Body weight was recorded twice per week prior to the study, and before the blood glucose level measurements. […]

[2] = test system: mouse C2C12 skeletal muscle cells; conditions: cited from earlier work
[3] = test system: rat insulinoma cells (INS1); conditions: cited from earlier work
[4] = test system: male lean C57BL6 mice; assay: Oral glucose tolerance test, blood glucose levels (Example 1); format: in vivo; conditions: 5 μg/mouse, oral glucose 3 g/kg
Protocol: (§1) In this experiment, male lean C57BL6 mice were used. […] The mice were randomized to achieve similar body weight and glucose for each group before dosing. All animals were subjected to fasting at the start of the dark period (Group 1-4). Food was removed, and bedding materials were replaced with fresh bedding to eliminate any residual food. Animals remained under fast until the 120 minute time point was taken. Water was made available ad libitum throughout the study. A 30 mg/mL stock solution of melatonin (30 mg melatonin in 1 ml of pure sesame oil) was made. From this stock solution, 10 μL of stock was taken and diluted with 990 μL of sesame oil, resulting in a solution concentration of 300 μg/ml. This was then diluted 1:18, resulting in a final concentration of 16.6-16.7 μg/mL. Mice received 0.3 ml by subcutaneous injection (5 μg/mouse). […] Insulin and blood glucose levels were measured by standard methods. The oral glucose tolerance test was carried out as follows using a glucose oxidase reaction measured by a Precision glucometer. […] Blood glucose level of all animals in Group 1-4 were measured at time 0 (right before the glucose dosing), 5, 10, 20, 30, 60 and 120 minutes post glucose dosing (7 time points). Insulin levels were also measured at 0, 30, 60, and 120 minutes from separate collections of tail vein blood obtained post glucose dosing by Crystal Chemistry ELISA.

[5] = test system: male lean C57BL6 mice; assay: Insulin levels post glucose dosing by ELISA (Example 1); format: in vivo; conditions: 5 μg/mouse, oral glucose 3 g/kg
Protocol: as §1

[6] = test system: rat model of diabetes; conditions: cited from earlier work
[7] = cells exposed to melatonin and GLP-1 at the same time
[8] = overnight pretreatment with melatonin

SMILES	blood glucose levels ([1]; sitagliptin 10 mg/kg alone, PO -1 h, FIG. 2B)	glucose transport [2]	GLP-1 induced gene expression [3, 7]	GLP-1 induced insulin secretion [3, 7]	cAMP-response element-mediated gene expression in response to GLP-1 or forskolin [3, 8]	insulin secretion in response to GLP-1 or forskolin [3, 8]	insulin-promoter-driven luciferase gene expression in response to GLP-1 or forskolin [3, 8]	glucose levels compared to vehicle alone ([4]; 1-hour melatonin dose, SC -1 h, FIG. 1C)	blood glucose levels compared to vehicle alone ([4]; 12-hour sustained melatonin dose, SC -12 h, FIG. 1A)	insulin levels ([5]; 1-hour melatonin dose, SC -1 h, FIG. 1D)	insulin levels compared to vehicle alone ([5]; 12-hour melatonin dose, SC -12 h, FIG. 1B)	effect on the anti-diabetic action of sitagliptin ([1]; 12-hour melatonin dose SC with sitagliptin 10 mg/kg PO)	blood glucose levels [6]	protection against hyperglycemia-induced oxidative damage [6]
N[C@@H](CC(=O)N1CCn2c(nnc2C(F)(F)F)C1)Cc1cc(F)c(F)cc1F [Sitagliptin]	decrease													
COc1ccc2[nH]cc(CCNC(C)=O)c2c1 [melatonin, N-acetyl-5-methoxyindole-3-ethaneamine]		stimulates	antagonized	antagonized	marked increase	marked increase	marked increase	not appreciably different	significantly decreased	lower	much higher	does not inhibit	without affecting	limited protection

From patent US20120232003A1, “COMPOSITIONS AND METHODS FOR DIABETES TREATMENT” (priority 2009, published 2012)
